Structures are written as SMILES. “And” between values parts separate entries of the source, which are not always exact repeats. Identical values can stand only once. Inconclusive results and toxic doses are left out.

For this experiment, the system named is BDF1 mice, intracerebral L1210 leukemia, survival T/C. Put plainly: NCI In Vivo Anticancer Drug Screen. Data for tumor model L1210 Leukemia (intracerebral) in B6D2F1 (BDF1) mice. To be noted: higher = longer survival. The method in brief:
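Tumour was transplanted, animals received compound or vehicle, then survival in each group was measured and treated divided by control.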

Turning to `OCCN1CCN(CC/C=C2/c3ccccc3Sc3ccc(C(F)(F)F)cc32)CC1`, the T/C by setting is: (endpoint: mean survival time, dose: 3.12 mg/kg/injection, schedule: Q04DX003 (ip), vehicle: saline) 113 % of control; (endpoint: mean survival time, dose: 6.25 mg/kg/injection, schedule: Q04DX003 (ip), vehicle: saline) 111 % of control; (endpoint: mean survival time, dose: 12.5 mg/kg/injection, schedule: Q04DX003 (ip), vehicle: saline) 113 % of control; (endpoint: mean survival time, dose: 25.0 mg/kg/injection, schedule: Q04DX003 (ip), vehicle: saline) 100 % of control.
On to `CC1CCC(NC(=O)N(CCCl)N=O)CC1` (stereo not given), for which the T/C by setting is: (endpoint: mean survival time, dose: 2.0 mg/kg/injection, schedule: Q01DX001 (ip), vehicle: clinical formulation) 100 % of control; (endpoint: mean survival time, dose: 2.0 mg/kg/injection, schedule: Q01DX009 (ip), vehicle: other) 117 % of control; (endpoint: mean survival time, dose: 3.13 mg/kg/injection, schedule: Q01DX009 (ip), vehicle: Klucel (hydroxypropylcellulose) (HPC)) 112 % of control; (endpoint: mean survival time, dose: 4.0 mg/kg/injection, schedule: Q01DX001 (ip), vehicle: clinical formulation) 105 % of control; (endpoint: mean survival time, dose: 4.0 mg/kg/injection, schedule: Q01DX001 (ip), vehicle: saline) 103 % of control; (endpoint: mean survival time, dose: 4.3 mg/kg/injection, schedule: Q01DX001 (ip), vehicle: other) 104 % of control and 107 % of control. For the same compound, the T/C (endpoint: mean survival time, dose: 5.0 mg/kg/injection, schedule: Q01DX001 (ip), vehicle: other) was 115 % of control; the T/C (endpoint: mean survival time, dose: 5.0 mg/kg/injection, schedule: Q01DX009 (ip), vehicle: saline) was 161 % of control; the T/C (endpoint: mean survival time, dose: 5.4 mg/kg/injection, schedule: Q01DX001 (oral), vehicle: other) was 110 % of control; the T/C (endpoint: mean survival time, dose: 8.0 mg/kg/injection, schedule: Q01DX001 (ip), vehicle: Klucel (hydroxypropylcellulose) (HPC)) was 112 % of control; the T/C (endpoint: mean survival time, dose: 8.0 mg/kg/injection, schedule: Q01DX001 (ip), vehicle: clinical formulation) was 115 % of control; the T/C (endpoint: mean survival time, dose: 8.0 mg/kg/injection, schedule: Q01DX001 (ip), vehicle: saline) was 118 % of control. The T/C (endpoint: mean survival time, dose: 8.0 mg/kg/injection, schedule: Q01DX009 (ip), vehicle: other) is 183 % of control; the T/C (endpoint: mean survival time, dose: 9.0 mg/kg/injection, schedule: Q01DX001 (ip), vehicle: other) was 110 % of control and 112 % of control; the T/C (endpoint: mean survival time, dose: 10.0 mg/kg/injection, schedule: Q01DX009 (ip), vehicle: saline) was 151 % of control; the T/C (endpoint: mean survival time, dose: 12.5 mg/kg/injection, schedule: Q01DX009 (ip), vehicle: Klucel (hydroxypropylcellulose) (HPC)) is 161 % of control; the T/C (endpoint: mean survival time, dose: 16.0 mg/kg/injection, schedule: Q01DX001 (ip), vehicle: saline) was 153 % of control; the T/C (endpoint: mean survival time, dose: 16.0 mg/kg/injection, schedule: Q01DX009 (ip), vehicle: other) was 113 % of control. The T/C is 188 % of control (endpoint: mean survival time, dose: 20.0 mg/kg/injection, schedule: Q01DX001 (ip), vehicle: other); 98 % of control (endpoint: mean survival time, dose: 20.0 mg/kg/injection, schedule: Q01DX009 (ip), vehicle: saline); 175 % of control and 185 % of control (endpoint: mean survival time, dose: 24.0 mg/kg/injection, schedule: Q01DX001 (ip), vehicle: other); 109 % of control (endpoint: mean survival time, dose: 25.0 mg/kg/injection, schedule: Q01DX009 (ip), vehicle: Klucel (hydroxypropylcellulose) (HPC)); 187 % of control and 198 % of control (endpoint: mean survival time, dose: 30.0 mg/kg/injection, schedule: Q01DX001 (ip), vehicle: other); 160 % of control (endpoint: mean survival time, dose: 32.0 mg/kg/injection, schedule: Q01DX001 (ip), vehicle: clinical formulation). Further, the T/C reads like this: (endpoint: mean survival time, dose: 32.0 mg/kg/injection, schedule: Q01DX001 (oral), vehicle: clinical formulation) 102 % of control; (endpoint: mean survival time, dose: 36.0 mg/kg/injection, schedule: Q01DX001 (oral), vehicle: other) 238 % of control and 243 % of control and 292 % of control; (endpoint: mean survival time, dose: 40.0 mg/kg/injection, schedule: Q01DX001 (ip), vehicle: other) 280 % of control; (endpoint: mean survival time, dose: 45.0 mg/kg/injection, schedule: Q01DX001 (ip), vehicle: other) 225 % of control and 251 % of control; (endpoint: mean survival time, dose: 45.0 mg/kg/injection, schedule: Q01DX001 (oral), vehicle: other) 306 % of control and 362 % of control; (endpoint: mean survival time, dose: 54.0 mg/kg/injection, schedule: Q01DX001 (oral), vehicle: other) 189 % of control and 248 % of control and 357 % of control. Also, the T/C (endpoint: mean survival time, dose: 67.0 mg/kg/injection, schedule: Q01DX001 (ip), vehicle: other) was 168 % of control; the T/C (endpoint: mean survival time, dose: 72.0 mg/kg/injection, schedule: Q01DX001 (ip), vehicle: other) is 209 % of control and 306 % of control; the T/C (endpoint: mean survival time, dose: 90.0 mg/kg/injection, schedule: Q01DX001 (oral), vehicle: other) was 91 % of control; the T/C (endpoint: mean survival time, dose: 91.0 mg/kg/injection, schedule: Q01DX001 (oral), vehicle: other) was 114 % of control; the T/C (endpoint: mean survival time, dose: 128.0 mg/kg/injection, schedule: Q01DX001 (ip), vehicle: Klucel (hydroxypropylcellulose) (HPC)) was 109 % of control; the T/C (endpoint: mean survival time, dose: 128.0 mg/kg/injection, schedule: Q01DX001 (ip), vehicle: clinical formulation) is 103 % of control. The T/C runs as follows: (endpoint: mean survival time, dose: 128.0 mg/kg/injection, schedule: Q01DX001 (ip), vehicle: saline) 103 % of control; (endpoint: mean survival time, dose: 256.0 mg/kg/injection, schedule: Q01DX001 (ip), vehicle: Klucel (hydroxypropylcellulose) (HPC)) 111 % of control; (endpoint: mean survival time, dose: 256.0 mg/kg/injection, schedule: Q01DX001 (oral), vehicle: clinical formulation) 112 % of control; (endpoint: median survival time, dose: 2.0 mg/kg/injection, schedule: Q01DX001 (ip), vehicle: clinical formulation) 106 % of control; (endpoint: median survival time, dose: 2.0 mg/kg/injection, schedule: Q01DX001 (ip), vehicle: saline) 106 % of control; (endpoint: median survival time, dose: 4.0 mg/kg/injection, schedule: Q01DX001 (ip), vehicle: clinical formulation) 113 % of control. Besides, the T/C by setting is: (endpoint: median survival time, dose: 4.0 mg/kg/injection, schedule: Q01DX001 (ip), vehicle: saline) 115 % of control; (endpoint: median survival time, dose: 8.0 mg/kg/injection, schedule: Q01DX001 (ip), vehicle: clinical formulation) 122 % of control; (endpoint: median survival time, dose: 16.0 mg/kg/injection, schedule: Q01DX001 (ip), vehicle: saline) 178 % of control; (endpoint: median survival time, dose: 32.0 mg/kg/injection, schedule: Q01DX001 (ip), vehicle: clinical formulation) 175 % of control; (endpoint: median survival time, dose: 32.0 mg/kg/injection, schedule: Q01DX001 (ip), vehicle: saline) 159 % of control; (endpoint: median survival time, dose: 32.0 mg/kg/injection, schedule: Q01DX001 (oral), vehicle: clinical formulation) 108 % of control. For the same compound, the T/C is, setting by setting: (endpoint: median survival time, dose: 64.0 mg/kg/injection, schedule: Q01DX001 (oral), vehicle: clinical formulation) 150 % of control; (endpoint: median survival time, dose: 128.0 mg/kg/injection, schedule: Q01DX001 (ip), vehicle: clinical formulation) 110 % of control; (endpoint: median survival time, dose: 128.0 mg/kg/injection, schedule: Q01DX001 (ip), vehicle: saline) 117 % of control; (endpoint: median survival time, dose: 256.0 mg/kg/injection, schedule: Q01DX001 (ip), vehicle: clinical formulation) 103 % of control; (endpoint: median survival time, dose: 256.0 mg/kg/injection, schedule: Q01DX001 (ip), vehicle: saline) 102 % of control; (endpoint: median survival time, dose: 256.0 mg/kg/injection, schedule: Q01DX001 (oral), vehicle: clinical formulation) 118 % of control. Besides, the T/C is, setting by setting: (endpoint: median survival time, dose: 512.0 mg/kg/injection, schedule: Q01DX001 (oral), vehicle: clinical formulation) 98 % of control; (endpoint: median survival time, dose: 1024.0 mg/kg/injection, schedule: Q01DX001 (oral), vehicle: clinical formulation) 83 % of control.
`OC(CBr)C(O)C(O)C(O)CBr` (stereo not given): the T/C is 108 % of control (endpoint: mean survival time, dose: 25.0 mg/kg/injection, schedule: Q01DX009 (ip), vehicle: steriod suspending solution); 121 % of control (endpoint: mean survival time, dose: 50.0 mg/kg/injection, schedule: Q01DX009 (ip), vehicle: steriod suspending solution); 117 % of control (endpoint: mean survival time, dose: 100.0 mg/kg/injection, schedule: Q01DX009 (ip), vehicle: steriod suspending solution).
On to `CCCCCCCCCCCCCCCC(=O)OCC1OC(n2ccc(N)nc2=O)C(O)C1O` (stereo not given), for which the T/C is 111 % of control (2×) and 117 % of control (endpoint: mean survival time, dose: 5.0 mg/kg/injection, schedule: Q01DX005 (ip), vehicle: other); 154 % of control and 177 % of control and 180 % of control (endpoint: mean survival time, dose: 20.0 mg/kg/injection, schedule: Q01DX005 (ip), vehicle: other); 110 % of control and 112 % of control and 116 % of control (endpoint: mean survival time, dose: 25.0 mg/kg/injection, schedule: Q01DX001 (ip), vehicle: other); 171 % of control and 192 % of control and 202 % of control (endpoint: mean survival time, dose: 25.0 mg/kg/injection, schedule: Q01DX005 (ip), vehicle: other); 169 % of control and 204 % of control and 242 % of control (endpoint: mean survival time, dose: 30.0 mg/kg/injection, schedule: Q01DX005 (ip), vehicle: other); 201 % of control and 211 % of control and 214 % of control (endpoint: mean survival time, dose: 35.0 mg/kg/injection, schedule: Q01DX005 (ip), vehicle: other). For the same compound, the T/C (endpoint: mean survival time, dose: 100.0 mg/kg/injection, schedule: Q01DX001 (ip), vehicle: other) was 166 % of control; the T/C (endpoint: mean survival time, dose: 150.0 mg/kg/injection, schedule: Q01DX001 (ip), vehicle: other) was 173 % of control and 191 % of control and 213 % of control; the T/C (endpoint: mean survival time, dose: 200.0 mg/kg/injection, schedule: Q01DX001 (ip), vehicle: other) is 170 % of control and 216 % of control and 242 % of control; the T/C (endpoint: mean survival time, dose: 250.0 mg/kg/injection, schedule: Q01DX001 (ip), vehicle: other) is 161 % of control and 195 % of control and 222 % of control; the T/C (endpoint: median survival time, dose: 25.0 mg/kg/injection, schedule: Q01DX009 (ip), vehicle: saline with Tween-80) is 295 % of control; the T/C (endpoint: median survival time, dose: 50.0 mg/kg/injection, schedule: Q01DX009 (ip), vehicle: saline with Tween-80) was 106 % of control.

For the origin of these results see PubChem BioAssay AID252 (DTP/NCI, 2004).
